Experimental findings from ChEMBL document CHEMBL3301472, “MMV Malaria Box HIV and cytotoxicity screening” are described below.

What all share (type): toxicity, cell-based
The nature of series [1]: MMV: MTT Cytotoxicity Assay Day 3 pi, U87-CD4-CXCR4 cells, % cell death @ 5mM compound. The conditions noted are these: human, u87-cd4-cxcr4, 5000 µM.
A short description of series [2]: MMV: MTT Cytotoxicity Assay Day 7 pi of Assay #7 (compound washed out Day 1 pi), U87-CD4-CXCR4 cells, % cell death @ 5mM compound. The following applies: human, u87-cd4-cxcr4, 5000 µM.
Series [3] is described as follows: MMV: MTT Cytotoxicity Assay Day 7 pi of Assay #6 (compound washed out Day 1 pi), U87-CD4-CCR5 cells, % cell death @ 5mM compound. The following applies: human, u87-cd4-ccr5, 5000 µM.
Series [4] is described as follows: MMV: MTT Cytotoxicity Assay Day 7 pi of Assay #11 (NO washout), U87-CD4-CXCR4 cells, % cell death @ 5mM compound. The conditions noted are these: human, u87-cd4-cxcr4, 5000 µM.
The nature of series [5]: MMV: MTT Cytotoxicity Assay Day 3 pi, U87-CD4-CCR5 cells, % cell death @ 5mM compound. The conditions noted are these: human, u87-cd4-ccr5, 5000 µM.
Series [6] is described as follows: MMV: MTT Cytotoxicity Assay Day 7 pi of Assay #10 (NO washout), U87-CD4-CCR5 cells, % cell death @ 5mM compound. The following applies: human, u87-cd4-ccr5, 5000 µM.

Regarding `CCCCc1ccc(NS(=O)(=O)c2cc3c4c(c2)CCN4C(=O)CC3)cc1`, the “% Cell Death” value in series [1] was determined as 20; in series [2], 1; in series [3] it was 47; in series [4] it was 93; in series [5], 6; in series [6], 85.
In the case of `O=C(NC(c1ccccc1)c1ccc2cccnc2c1O)c1ccccc1` (configuration not stated), the “% Cell Death” value is given as 12 in series [1]; -26 in series [2]; 43 in series [3]; 39 in series [4]; -19 in series [5]; 122 in series [6].
Turning to `O=C(NC1CCN(Cc2ccccc2)CC1)c1cc(C(=O)NC2CCN(Cc3ccccc3)CC2)cc(C(=O)NC2CCN(Cc3ccccc3)CC2)c1`, the “% Cell Death” value was found to be 60 in series [1]; 72 in series [2]; 14 in series [3]; 71 in series [4]; 12 in series [5]; 48 in series [6].
As to `COc1ccc(C(=O)NC(c2ccc(Cl)cc2Cl)c2cc(Cl)c3cccnc3c2O)cc1` (configuration not stated), the “% Cell Death” value in series [1] worked out at 58; in series [2] it was 18; in series [3] it was 1; in series [4], 102; in series [5], 42; in series [6] it was 84.
With `CCOc1ccc(-n2cc(-c3ccccc3)c3c(SCc4cc(C)ccc4C)ncnc32)cc1`, the “% Cell Death” value is 29 in series [1]; -9 in series [2]; 11 in series [3]; 11 in series [4]; 3 in series [5]; -1 in series [6].
For `Cc1ccc(F)cc1NC(=O)c1cc(Cl)ccc1Nc1ccccc1`, the “% Cell Death” value in series [1] is listed as 25; in series [2], -2; in series [3], 8; in series [4] it was -27; in series [5], 7; in series [6], 28.
`CCCCC(O)(c1ccc(Cl)cc1)C(CN1CCOCC1)c1ccc(Cl)cc1.Cl` (configuration not stated): the “% Cell Death” value in series [1] was 36; in series [2], -16; in series [3], -10; in series [4], 41; in series [5], -6; in series [6], 17.
Consider `COc1ccc2nc(C)cc(Nc3ccc(Cl)cc3)c2c1`, for which the “% Cell Death” value in series [1] worked out at 100; in series [2], 90; in series [3], 103; in series [4], 117; in series [5] it was 106; in series [6], 121.
With `COc1ccc(C(=O)C(CCC(CNC(C)(C)C)C(=O)c2ccc(OC)cc2)CNC(C)(C)C)cc1` (configuration not stated), the “% Cell Death” value in series [1] is 100; in series [2], 75; in series [3], 27; in series [4], 105; in series [5] it was 94; in series [6], 137.
Turning to `COc1ccccc1CNC(=O)CCn1c(=O)[nH]c2ccccc2c1=O`, the “% Cell Death” value is 12 in series [1]; -15 in series [2]; 7 in series [3]; -16 in series [4]; -7 in series [5]; 16 in series [6].
`CCc1ccc(Nc2cc(C)c3ccc(O)cc3n2)cc1.Cl`: the “% Cell Death” value in series [1] was 101; in series [2] it was 95; in series [3], 101; in series [4], 102; in series [5] it was 105; in series [6] it was 130.
`COc1ccccc1N1CCN(C(CNS(=O)(=O)c2ccc(Cl)cc2)c2cccnc2)CC1` (configuration not stated): the “% Cell Death” value amounted to 94 in series [1]; 81 in series [2]; 83 in series [3]; 105 in series [4]; 109 in series [5]; 130 in series [6].
